According to publication PMC4685510, “A Cell Biologist’s Field Guide to Aurora Kinase Inhibitors” (Frontiers in Oncology, 2015):

How the values were obtained:
Assay in all cases: biochemical
Type in all cases: biochemical
[1] = biological target: 363 human kinases (including Aurora A/B/C) (Homo sapiens, UniProt Q15759); conditions: P38b/MAPK11; for remaining activity at 0.1 µM: 100 nM; for remaining activity at 0.1 µM / remaining activity at 0.5 µM: read-out: % Enzyme Activity (relative to DMSO controls)
Chain of 363 human kinases (including Aurora A/B/C) (Homo sapiens, UniProt Q15759) (Q15759 whole entry): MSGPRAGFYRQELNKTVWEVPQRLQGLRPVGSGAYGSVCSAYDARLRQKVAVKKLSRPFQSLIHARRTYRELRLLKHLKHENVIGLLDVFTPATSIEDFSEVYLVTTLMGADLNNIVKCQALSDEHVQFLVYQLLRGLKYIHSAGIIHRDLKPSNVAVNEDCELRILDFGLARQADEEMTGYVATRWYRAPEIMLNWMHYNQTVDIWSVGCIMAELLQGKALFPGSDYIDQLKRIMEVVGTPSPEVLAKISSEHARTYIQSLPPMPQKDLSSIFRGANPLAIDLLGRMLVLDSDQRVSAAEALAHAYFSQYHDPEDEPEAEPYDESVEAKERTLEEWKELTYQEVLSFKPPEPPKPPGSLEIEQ
Text: (§1) However, the Aurora A/B selectivity ratios derived from our in vitro and in vivo data can be compared to prioritize inhibitors.

[2] = biological target: T1, 363 human kinases (including Aurora A/B/C) (Homo sapiens, UniProt O75385); conditions: ULK1; for remaining activity at 0.1 µM: 100 nM; for remaining activity at 0.1 µM / remaining activity at 0.5 µM: read-out: % Enzyme Activity (relative to DMSO controls)
T1 sequence (O75385 1-1050): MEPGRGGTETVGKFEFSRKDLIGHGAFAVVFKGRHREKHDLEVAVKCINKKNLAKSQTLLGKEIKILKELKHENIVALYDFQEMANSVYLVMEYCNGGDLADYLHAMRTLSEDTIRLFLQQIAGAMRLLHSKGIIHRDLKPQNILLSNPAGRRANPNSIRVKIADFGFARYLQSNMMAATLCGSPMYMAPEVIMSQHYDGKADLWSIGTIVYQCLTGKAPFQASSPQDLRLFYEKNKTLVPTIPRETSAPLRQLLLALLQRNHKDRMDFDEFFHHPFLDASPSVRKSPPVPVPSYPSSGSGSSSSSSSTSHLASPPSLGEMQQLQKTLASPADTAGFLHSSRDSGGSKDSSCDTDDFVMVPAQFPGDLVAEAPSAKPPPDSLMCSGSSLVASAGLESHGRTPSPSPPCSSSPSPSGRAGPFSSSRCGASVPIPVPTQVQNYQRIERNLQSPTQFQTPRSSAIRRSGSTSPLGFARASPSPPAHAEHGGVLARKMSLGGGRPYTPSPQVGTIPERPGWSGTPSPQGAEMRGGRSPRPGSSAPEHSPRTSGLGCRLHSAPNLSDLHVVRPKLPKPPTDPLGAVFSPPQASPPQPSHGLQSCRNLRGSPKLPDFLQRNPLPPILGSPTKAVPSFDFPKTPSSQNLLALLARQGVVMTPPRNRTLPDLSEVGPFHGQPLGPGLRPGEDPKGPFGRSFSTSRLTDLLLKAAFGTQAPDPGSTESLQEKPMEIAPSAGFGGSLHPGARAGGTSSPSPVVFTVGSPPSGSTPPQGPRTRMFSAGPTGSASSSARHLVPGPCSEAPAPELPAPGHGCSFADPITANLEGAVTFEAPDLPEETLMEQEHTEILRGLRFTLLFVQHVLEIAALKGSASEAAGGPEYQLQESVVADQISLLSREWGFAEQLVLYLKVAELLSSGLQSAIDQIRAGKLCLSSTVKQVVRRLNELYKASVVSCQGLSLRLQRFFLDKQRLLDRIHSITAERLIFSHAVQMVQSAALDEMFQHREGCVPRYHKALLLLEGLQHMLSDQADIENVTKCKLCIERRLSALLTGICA
Text: as §1

[3] = biological target: 363 human kinases (including Aurora A/B/C) (Homo sapiens, UniProt O60674); conditions: JAK2; for remaining activity at 0.1 µM: 100 nM; for remaining activity at 0.1 µM / remaining activity at 0.5 µM: read-out: % Enzyme Activity (relative to DMSO controls)
Chain of 363 human kinases (including Aurora A/B/C) (Homo sapiens, UniProt O60674) (O60674 whole entry): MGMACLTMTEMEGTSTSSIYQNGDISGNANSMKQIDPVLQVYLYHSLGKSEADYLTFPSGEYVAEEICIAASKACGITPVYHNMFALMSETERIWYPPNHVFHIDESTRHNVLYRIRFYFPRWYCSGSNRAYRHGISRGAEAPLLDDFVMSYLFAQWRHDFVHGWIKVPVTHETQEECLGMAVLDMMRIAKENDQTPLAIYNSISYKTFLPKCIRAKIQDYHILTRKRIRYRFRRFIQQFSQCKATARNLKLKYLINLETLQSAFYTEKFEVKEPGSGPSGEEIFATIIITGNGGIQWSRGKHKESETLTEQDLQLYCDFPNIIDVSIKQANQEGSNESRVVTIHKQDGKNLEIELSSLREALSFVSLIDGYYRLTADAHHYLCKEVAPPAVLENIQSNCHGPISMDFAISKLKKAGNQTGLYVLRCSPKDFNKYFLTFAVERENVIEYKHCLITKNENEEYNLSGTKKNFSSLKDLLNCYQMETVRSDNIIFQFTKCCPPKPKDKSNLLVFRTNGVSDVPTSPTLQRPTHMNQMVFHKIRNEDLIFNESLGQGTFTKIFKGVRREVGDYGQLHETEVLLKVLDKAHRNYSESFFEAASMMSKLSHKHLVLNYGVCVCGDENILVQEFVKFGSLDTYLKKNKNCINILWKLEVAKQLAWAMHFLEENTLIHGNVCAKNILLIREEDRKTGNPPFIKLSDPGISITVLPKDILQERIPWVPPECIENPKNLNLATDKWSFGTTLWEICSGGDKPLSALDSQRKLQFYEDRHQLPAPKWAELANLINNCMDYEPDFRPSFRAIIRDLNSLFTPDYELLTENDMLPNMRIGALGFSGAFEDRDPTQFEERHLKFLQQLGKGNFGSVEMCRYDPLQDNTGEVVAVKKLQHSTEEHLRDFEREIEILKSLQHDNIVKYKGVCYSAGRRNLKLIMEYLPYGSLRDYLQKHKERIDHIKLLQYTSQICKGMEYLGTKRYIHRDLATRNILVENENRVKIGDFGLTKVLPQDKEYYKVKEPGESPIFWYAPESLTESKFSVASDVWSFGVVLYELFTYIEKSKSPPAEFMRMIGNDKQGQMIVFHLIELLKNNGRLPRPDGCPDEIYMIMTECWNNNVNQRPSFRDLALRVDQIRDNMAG
Text: as §1

[4] = biological target: 363 human kinases (including Aurora A/B/C) (Homo sapiens, UniProt P07947); conditions: YES/YES1; for remaining activity at 0.1 µM: 100 nM; for remaining activity at 0.1 µM / remaining activity at 0.5 µM: read-out: % Enzyme Activity (relative to DMSO controls)
Chain of 363 human kinases (including Aurora A/B/C) (Homo sapiens, UniProt P07947) (P07947 whole entry): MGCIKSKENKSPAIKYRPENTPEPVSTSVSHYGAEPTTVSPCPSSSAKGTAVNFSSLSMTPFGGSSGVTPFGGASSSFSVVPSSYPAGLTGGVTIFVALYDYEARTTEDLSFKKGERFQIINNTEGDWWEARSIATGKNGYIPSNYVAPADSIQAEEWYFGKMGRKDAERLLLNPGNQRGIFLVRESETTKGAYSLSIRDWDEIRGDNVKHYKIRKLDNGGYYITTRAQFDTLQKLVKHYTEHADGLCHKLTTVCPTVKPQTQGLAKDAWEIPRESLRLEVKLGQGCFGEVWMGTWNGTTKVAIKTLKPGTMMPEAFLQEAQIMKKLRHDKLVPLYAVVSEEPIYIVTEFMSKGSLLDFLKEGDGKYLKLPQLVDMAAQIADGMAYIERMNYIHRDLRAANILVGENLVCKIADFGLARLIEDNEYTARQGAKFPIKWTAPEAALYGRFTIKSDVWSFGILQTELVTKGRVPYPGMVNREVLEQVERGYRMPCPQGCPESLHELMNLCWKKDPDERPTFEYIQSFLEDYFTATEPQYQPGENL
Text: as §1

[5] = biological target: 363 human kinases (including Aurora A/B/C) (Homo sapiens, UniProt Q00536); conditions: CDK16/cyclin Y (PCTAIRE), [ATP] 15 µM; for remaining activity at 0.1 µM: 100 nM; for remaining activity at 0.1 µM / remaining activity at 0.5 µM: read-out: % Enzyme Activity (relative to DMSO controls)
Chain of 363 human kinases (including Aurora A/B/C) (Homo sapiens, UniProt Q00536) (Q00536 whole entry): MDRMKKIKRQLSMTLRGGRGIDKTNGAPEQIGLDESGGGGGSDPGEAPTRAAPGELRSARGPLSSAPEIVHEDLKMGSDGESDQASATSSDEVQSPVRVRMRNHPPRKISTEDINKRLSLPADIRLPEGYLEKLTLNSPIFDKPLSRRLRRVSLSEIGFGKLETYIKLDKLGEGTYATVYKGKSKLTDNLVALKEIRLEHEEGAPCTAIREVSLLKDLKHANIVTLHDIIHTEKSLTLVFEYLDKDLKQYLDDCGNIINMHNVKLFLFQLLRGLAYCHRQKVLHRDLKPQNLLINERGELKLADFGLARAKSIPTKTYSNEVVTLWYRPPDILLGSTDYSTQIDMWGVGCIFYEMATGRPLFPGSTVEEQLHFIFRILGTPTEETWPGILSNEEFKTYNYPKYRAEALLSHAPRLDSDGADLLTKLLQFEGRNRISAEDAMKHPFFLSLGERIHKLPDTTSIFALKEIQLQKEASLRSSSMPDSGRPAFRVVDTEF
Text: as §1

[6] = biological target: 363 human kinases (including Aurora A/B/C) (Homo sapiens, UniProt P16234); conditions: PDGFRa; for remaining activity at 0.1 µM: 100 nM; for remaining activity at 0.1 µM / remaining activity at 0.5 µM: read-out: % Enzyme Activity (relative to DMSO controls)
Chain of 363 human kinases (including Aurora A/B/C) (Homo sapiens, UniProt P16234) (P16234 24-1089): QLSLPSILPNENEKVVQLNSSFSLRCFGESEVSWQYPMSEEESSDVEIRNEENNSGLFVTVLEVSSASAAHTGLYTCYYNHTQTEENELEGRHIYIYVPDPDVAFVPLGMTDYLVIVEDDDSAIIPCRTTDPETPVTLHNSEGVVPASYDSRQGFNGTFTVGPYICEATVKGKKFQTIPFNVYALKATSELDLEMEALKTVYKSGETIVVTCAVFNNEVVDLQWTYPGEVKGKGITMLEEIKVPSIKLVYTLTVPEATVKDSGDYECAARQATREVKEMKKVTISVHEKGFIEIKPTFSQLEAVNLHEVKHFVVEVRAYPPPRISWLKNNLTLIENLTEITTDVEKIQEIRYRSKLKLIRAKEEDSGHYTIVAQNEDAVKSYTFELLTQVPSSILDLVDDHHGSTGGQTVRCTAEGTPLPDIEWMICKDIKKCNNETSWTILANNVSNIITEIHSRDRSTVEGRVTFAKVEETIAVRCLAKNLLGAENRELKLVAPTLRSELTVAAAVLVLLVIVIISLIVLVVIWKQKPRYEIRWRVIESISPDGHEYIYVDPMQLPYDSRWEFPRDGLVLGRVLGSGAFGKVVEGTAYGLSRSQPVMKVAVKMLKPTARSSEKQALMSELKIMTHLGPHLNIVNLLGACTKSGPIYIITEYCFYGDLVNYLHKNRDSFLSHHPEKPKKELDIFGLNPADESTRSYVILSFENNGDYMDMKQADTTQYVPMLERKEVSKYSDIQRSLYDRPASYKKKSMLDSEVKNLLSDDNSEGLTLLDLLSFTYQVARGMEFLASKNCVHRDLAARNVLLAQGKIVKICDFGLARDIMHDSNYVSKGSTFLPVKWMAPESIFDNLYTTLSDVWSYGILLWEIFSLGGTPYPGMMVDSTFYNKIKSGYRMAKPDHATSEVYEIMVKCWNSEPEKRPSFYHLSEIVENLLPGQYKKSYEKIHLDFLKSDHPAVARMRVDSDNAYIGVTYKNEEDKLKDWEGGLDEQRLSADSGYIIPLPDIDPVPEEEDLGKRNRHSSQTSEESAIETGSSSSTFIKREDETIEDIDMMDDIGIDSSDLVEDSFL
Text: as §1

[7] = biological target: T2, 363 human kinases (including Aurora A/B/C) (Homo sapiens, UniProt Q8TDC3); conditions: BRSK1, [ATP] 50 µM; for remaining activity at 0.1 µM: 100 nM; for remaining activity at 0.1 µM / remaining activity at 0.5 µM: read-out: % Enzyme Activity (relative to DMSO controls)
T2 sequence (Q8TDC3 1-778): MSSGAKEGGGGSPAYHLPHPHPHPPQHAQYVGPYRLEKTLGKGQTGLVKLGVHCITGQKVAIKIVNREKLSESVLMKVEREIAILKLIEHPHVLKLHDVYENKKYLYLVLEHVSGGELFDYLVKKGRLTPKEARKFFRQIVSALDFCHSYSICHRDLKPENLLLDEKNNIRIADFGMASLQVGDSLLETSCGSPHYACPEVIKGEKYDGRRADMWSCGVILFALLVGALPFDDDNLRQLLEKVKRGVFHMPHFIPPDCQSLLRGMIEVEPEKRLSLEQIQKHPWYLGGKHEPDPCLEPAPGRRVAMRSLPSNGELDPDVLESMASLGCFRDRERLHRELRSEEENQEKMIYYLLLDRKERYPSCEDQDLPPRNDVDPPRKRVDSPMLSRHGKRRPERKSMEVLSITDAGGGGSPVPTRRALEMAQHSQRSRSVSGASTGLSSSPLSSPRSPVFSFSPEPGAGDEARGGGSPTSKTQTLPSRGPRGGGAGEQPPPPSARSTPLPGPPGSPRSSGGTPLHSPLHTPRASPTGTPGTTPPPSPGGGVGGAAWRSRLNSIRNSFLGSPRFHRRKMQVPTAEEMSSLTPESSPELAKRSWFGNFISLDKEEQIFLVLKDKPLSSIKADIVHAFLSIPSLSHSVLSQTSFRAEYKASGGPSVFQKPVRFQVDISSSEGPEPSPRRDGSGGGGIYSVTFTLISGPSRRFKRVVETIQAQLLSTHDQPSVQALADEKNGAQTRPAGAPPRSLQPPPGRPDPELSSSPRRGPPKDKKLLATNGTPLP
Text: as §1

O=C(O)[C@]1(Cc2cccc(Nc3nccs3)n2)CC[C@@H](Oc2cccc(Cl)c2F)CC1 [MK-5108]
remaining activity at 0.1 µM [1]: 102%
remaining activity at 0.5 µM ([1]; 500 nM): 96%
remaining activity at 0.1 µM [2]: 107%
remaining activity at 0.5 µM ([2]; 500 nM): 104%
remaining activity at 0.1 µM [3]: 31.1%
remaining activity at 0.5 µM ([3]; 500 nM): 7.8%
remaining activity at 0.1 µM [4]: 31.3%
remaining activity at 0.5 µM ([4]; 500 nM): 9.25%
remaining activity at 0.1 µM [5]: 83.6%
remaining activity at 0.5 µM ([5]; 500 nM): 98%
remaining activity at 0.1 µM [6]: 97.1%
remaining activity at 0.5 µM ([6]; 500 nM): 92.6%
remaining activity at 0.1 µM [7]: 95.8%
remaining activity at 0.5 µM ([7]; 500 nM): 82.2%

O=C(c1cccc(Cl)c1F)N1CCN(Cc2cccc(Nc3nccs3)n2)CC1 [MK-8745]
% Enzyme Activity (relative to DMSO controls) ([1]; 500 nM): 92.96%
remaining activity at 0.5 µM ([1]; 500 nM): 93.2%
% Enzyme Activity (relative to DMSO controls) ([2]; 500 nM): 92.67%
remaining activity at 0.5 µM ([2]; 500 nM): 93.8%
% Enzyme Activity (relative to DMSO controls) ([3]; 500 nM): 62.84%
remaining activity at 0.5 µM ([3]; 500 nM): 65.6%
% Enzyme Activity (relative to DMSO controls) ([4]; 500 nM): 33.63%
remaining activity at 0.5 µM ([4]; 500 nM): 34.6%
% Enzyme Activity (relative to DMSO controls) ([5]; 500 nM): 110.95%
remaining activity at 0.5 µM ([5]; 500 nM): 111%
% Enzyme Activity (relative to DMSO controls) ([6]; 500 nM): 99.66%
remaining activity at 0.5 µM ([6]; 500 nM): 99.8%
% Enzyme Activity (relative to DMSO controls) ([7]; 500 nM): 97.71%
remaining activity at 0.5 µM ([7]; 500 nM): 98.2%

CCn1cc(-c2ccnc3[nH]c(-c4cccc(CN(C)C)c4)cc23)c(-c2ccc(NC(=O)N(C)C)cc2)n1 [GSK1070916]
remaining activity at 0.1 µM [1]: 94.3%
remaining activity at 0.1 µM [2]: 111%
remaining activity at 0.1 µM [3]: 104%
remaining activity at 0.1 µM [4]: 69.3%
remaining activity at 0.1 µM [5]: 107%
remaining activity at 0.1 µM [6]: 94%
remaining activity at 0.1 µM [7]: 85.9%
